Data from patent publication US6977254B2, “Hydroxy cyclohexenyl phenyl carboxamides tocolytic oxytocin receptor antagonists” (Wyeth, priority 2001, dated 2005).

Biological target: T1, human V2 vasopressin receptor subtype (Homo sapiens, UniProt P30518)
T1 construct: host or cells: CHO cells, stably transfected (pZeoSV vector); membranes
Assay: Vasopressin binding in CHO cell membranes expressing human vasopressin V2 subtype receptors ([3H]arginine vasopressin)
Source text: Vasopressin Binding in Chinese Hamster Ovary Cell Membranes Expressing Human Vasopressin V2 Subtype Receptors
Chinese Hamster Ovary (CHO) cells stably transfected with the human V2 subtype receptors were obtained from M. Thibonnier, Case Western Reserve University School of Medicine, Cleveland, Ohio.
A. Passaging and Amplification of Cells:
CHO cells transfected with the human vasopressin V2 subtype receptors obtained from M. Thibonnier (pZeoSV vector) are allowed to grow to confluency (approx. >90%) in T-150 flasks under sterile conditions, in a cell culture medium of F-12 Nutrient Mixture (HAM) with L-glutamine (Gibco Cat. #11765-054) containing 15 mM HEPES (Gibco Cat. #15630-080), 1% antibiotic/antimycotic (add 5 mL 100×, Gibco Cat. #15240-062 per 500 mL F-12), 250 μg/mL Zeocin (add 1.25 mL of 100 mg/mL Invitrogen R-250-01 per 500 mL F-12) and 10% Fetal Bovine Serum (Qualified, heat inactivated, Gibco Cat. #16140-063). The medium is removed by aspiration and the cells washed with 10 mL of Hank's Balanced Salt solution (Gibco Cat. #14175-095). The salt solution is removed by aspiration and the cells trypsinized with 5 mL of trypsin-EDTA (0.05% trypsin, 0.53 mM EDTA-4Na, Gibco Cat. #25300-070) for 1 min. The trypsin is removed by aspiration and the cells dislodged by tapping. Cell Culture medium (e.g. 30 mL for 1:30 split) is immediately added and mixed well to inactivate trypsin. 1 mL of detached cells is added to new culture flasks containing fresh Cell Culture medium (e.g. into 25 mL per T-150 flask), and mixed gently. The cells are incubated at 37° C. in 5% CO2. The medium is changed at 3 to 4 day interval (or as appropriate). The cells grow to confluency (approx. >75%-95%) within 7-8 days. All steps are done under sterile conditions.
The cells are washed twice gently with Hank's Balanced Salt solution (e.g. use 10 mL per T-150 flask). The excess solution is removed and the cells bathed for 15-30 min. in an enzyme-free Cell Dissociation Buffer (e.g. use 8 mL Hank's Based, Gibco Cat. #13150-016 per T-150 flask) until cells are loosened. The contents are transferred to centrifuge tubes (50 mL size) kept in ice bath. All subsequent steps are done at 4° C. The tubes are centrifuged at 300×g for 15 min (1380 rpm on SORVAL, Model RT6000D, using rotor for 50 mL tubes). The supernatant is discarded and the cells suspended in homogeneizing buffer(10 mM Tris-HCl containing 0.25 M sucrose and 1 mM EDTA, pH 7.4) ensuring that the volume of the buffer is about ten times the volume of the cell pellet. The cells are pooled into a centrifuge tube (50 mL) and homogenized with Polytron at setting 6 for 10 sec. The homogenate is transferred into a Potter-Elvjehm homogeneizer and homogenized with 3 strokes. The homogenate is centrifuged at 1500×g for 60 min at 4° C. (3100 rpm using SORVAL, model RT6000D, using rotor for 50 mL tubes). The pellet is discarded. The supernatant is centrifuged at 100,000×g for 60 min. at 4° C. (Beckman L8-80M ultracentrifuge; spin at 37,500 rpm with rotor type 70 Ti for 50 mL tubes; 38,000 rpm with type 80Ti for 15 mL tubes; or 35,800 rpm with rotor type 45Ti). The supernantant is discarded and the pellet suspended in 3 to 4 mL of Tris buffer (50 mM TRIS-HCl, pH 7.4). The protein content is estimated by the Bradford or Lowry method. The volume of the membrane suspension is adjusted with the membrane buffer (50 mM Tris-HCl containing 0.1% BSA and 0.1 mM PMSF) to give 3.0 mg/mL (or as appropriate) of protein. The membranes are aliquoted and stored at −70° C.
C. Radioligand Binding Assay:
In wells of a 96-well format microtiter plate, is added 90, 110 or 130 μL (to make up a final volume of 200 μL) of assay buffer containing 50 mM of Tris-HCl (pH 7.4), […], 1 mg % aprotinin, 1 mg % leupeptin, 2 mg % 1,10-phenanthroline, 10 mg % trypsin inhibitor, and 0.1 mM PMSF. The inhibitors are added on the day of the experiment. […]

T1 sequence (P30518 whole entry): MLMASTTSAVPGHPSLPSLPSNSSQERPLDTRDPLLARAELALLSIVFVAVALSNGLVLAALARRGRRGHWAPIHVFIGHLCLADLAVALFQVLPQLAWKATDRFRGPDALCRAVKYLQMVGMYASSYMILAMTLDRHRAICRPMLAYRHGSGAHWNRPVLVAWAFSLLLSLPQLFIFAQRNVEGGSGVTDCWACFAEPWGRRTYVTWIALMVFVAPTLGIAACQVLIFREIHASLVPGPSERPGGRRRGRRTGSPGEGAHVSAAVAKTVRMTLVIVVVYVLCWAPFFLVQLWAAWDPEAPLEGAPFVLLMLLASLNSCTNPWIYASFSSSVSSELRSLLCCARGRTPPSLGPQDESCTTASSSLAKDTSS

Row | inhibition at 0.1 µM (100 nM, value without parentheses) [%] | IC50 (value in parentheses) [µM] | SMILES
1 | 11 | – | Cc1cc(C(=O)N2Cc3ccc(C(=O)N[C@H](CO)C(=O)O)n3Cc3ccccc32)ccc1C1=CCCCC1 [Example 14, (2R)-2-{[10-(4-Cyclohex-1-en-1-yl-3-methyl-benzoyl)-10,11-dihydro-5H-pyrrolo[2,1-c][1,4]benzodiazepine-3-carbonyl]-amino}-3-hydroxy-propionic acid]
2 | – | 4.59 | COC[C@@H](OC)[C@@H](OC)[C@H](OC)[C@H](CN(C)C(=O)c1ccc2n1Cc1ccccc1N(C(=O)c1cc(Cl)c(C3=CCCCC3)cc1OC)C2)OC [Example 2, 10-(5-Chloro-4-cyclohex-1-en-1-yl-2-methoxybenzoyl)-N-methyl-N-[(2S,3R,4R,5R)-2,3,4,5,6-pentamethoxyhexyl]-10,11-dihydro-5H-pyrrolo[2,1-c][1,4]benzodiazepine-3-carboxamide]
